{"source": "ChEMBL document CHEMBL1667770", "about": "“Stereoselective first total synthesis, confirmation of the absolute configuration and bioevaluation of botryolide-E” (2011)", "assay_type_in_all_cases": "functional", "key": {"[1]": {"tested_on": "Staphylococcus aureus", "experiment": "Antimicrobial activity against Staphylococcus aureus MTCC 96 after 24 hrs by broth dilution method", "conditions": "MTCC 96, 24 h"}, "[2]": {"tested_on": "Bacillus subtilis", "experiment": "Antimicrobial activity against Bacillus subtilis MTCC 441 after 24 hrs by broth dilution method", "conditions": "MTCC 441, 24 h"}, "[3]": {"tested_on": "Staphylococcus epidermidis", "experiment": "Antimicrobial activity against Staphylococcus epidermidis MTCC 437 after 24 hrs by broth dilution method", "conditions": "MTCC 437, 24 h"}, "[4]": {"tested_on": "Escherichia coli", "experiment": "Antimicrobial activity against Escherichia coli MTCC 443 after 24 hrs by broth dilution method", "conditions": "MTCC 443, 24 h"}, "[5]": {"tested_on": "Pseudomonas aeruginosa", "experiment": "Antimicrobial activity against Pseudomonas aeruginosa MTCC 741 after 24 hrs by broth dilution method", "conditions": "MTCC 741, 24 h"}, "[6]": {"tested_on": "Klebsiella pneumoniae", "experiment": "Antimicrobial activity against Klebsiella pneumoniae MTCC 39 after 24 hrs by broth dilution method", "conditions": "MTCC 39, 24 h"}, "[7]": {"tested_on": "Rhizopus arrhizus", "experiment": "Antimicrobial activity against Rhizopus oryzae MTCC 262 at 100 ug/ml after 24 to 96 hrs by agar cup method", "conditions": "read-out: IZ"}, "[8]": {"tested_on": "Aspergillus niger", "experiment": "Antimicrobial activity against Aspergillus niger MTCC 1344 at 100 ug/ml after 24 to 96 hrs by agar cup method", "conditions": "read-out: IZ"}, "[9]": {"tested_on": "Candida albicans", "experiment": "Antimicrobial activity against Candida albicans MTCC 227 at 100 ug/ml after 24 to 96 hrs by agar cup method", "conditions": "read-out: IZ"}, "[10]": {"tested_on": "Saccharomyces cerevisiae", "experiment": "Antimicrobial activity against Saccharomyces cerevisiae MTCC 171 at 100 ug/ml after 24 to 96 hrs by agar cup method", "conditions": "read-out: IZ"}, "[11]": {"tested_on": "Rhizopus arrhizus", "experiment": "Antimicrobial activity against Rhizopus oryzae MTCC 262 at 30 ug/ml after 24 to 96 hrs by agar cup method", "conditions": "read-out: IZ"}, "[12]": {"tested_on": "Aspergillus niger", "experiment": "Antimicrobial activity against Aspergillus niger MTCC 1344 at 30 ug/ml after 24 to 96 hrs by agar cup method", "conditions": "read-out: IZ"}, "[13]": {"tested_on": "Candida albicans", "experiment": "Antimicrobial activity against Candida albicans MTCC 227 at 30 ug/ml after 24 to 96 hrs by agar cup method", "conditions": "read-out: IZ"}, "[14]": {"tested_on": "Saccharomyces cerevisiae", "experiment": "Antimicrobial activity against Saccharomyces cerevisiae MTCC 171 at 30 ug/ml after 24 to 96 hrs by agar cup method", "conditions": "read-out: IZ"}}}
{"compound": "O=C1CN(/N=C/c2ccc([N+](=O)[O-])o2)C(=O)N1", "note": "[NITROFURANTOIN]", "values": [{"measurement": "MIC", "setting": "[1]", "value": 50, "unit": "µg/mL"}, {"measurement": "MIC", "setting": "[2]", "value": 100, "unit": "µg/mL"}, {"measurement": "MIC", "setting": "[3]", "value": 50, "unit": "µg/mL"}, {"measurement": "MIC", "setting": "[4]", "value": 25, "unit": "µg/mL"}, {"measurement": "MIC", "setting": "[5]", "value": 100, "unit": "µg/mL"}, {"measurement": "MIC", "setting": "[6]", "value": 50, "unit": "µg/mL"}]}
{"compound": "CC1(C)S[C@@H]2[C@H](NC(=O)Cc3ccccc3)C(=O)N2[C@H]1C(=O)O", "note": "[PENICILLIN G]", "values": [{"measurement": "MIC", "setting": "[1]", "value": 1.56, "unit": "µg/mL"}, {"measurement": "MIC", "setting": "[2]", "value": 1.56, "unit": "µg/mL"}, {"measurement": "MIC", "setting": "[3]", "value": 1.56, "unit": "µg/mL"}]}
{"compound": "CC(=O)O[C@H](C)C[C@H](O)[C@@H]1C=CC(=O)O1", "note": "[BOTRYOLIDE-E]", "values": [{"measurement": "MIC", "setting": "[1]", "value": 6.25, "unit": "µg/mL"}, {"measurement": "MIC", "setting": "[2]", "value": 25, "unit": "µg/mL"}, {"measurement": "MIC", "setting": "[3]", "value": 50, "unit": "µg/mL"}, {"measurement": "MIC", "setting": "[4]", "value": 12.5, "unit": "µg/mL"}, {"measurement": "MIC", "setting": "[5]", "value": 50, "unit": "µg/mL"}, {"measurement": "MIC", "setting": "[6]", "value": 50, "unit": "µg/mL"}, {"measurement": "zone of inhibition at 100 µg/mL", "setting": "[7]", "value": 14, "unit": "mm"}, {"measurement": "zone of inhibition at 100 µg/mL", "setting": "[8]", "value": 10, "unit": "mm"}, {"measurement": "zone of inhibition at 100 µg/mL", "setting": "[9]", "value": 12, "unit": "mm"}, {"measurement": "zone of inhibition at 100 µg/mL", "setting": "[10]", "value": 8, "unit": "mm"}]}
{"compound": "CN[C@@H]1[C@H](O[C@H]2[C@H](O[C@H]3[C@H](O)[C@@H](O)[C@H](N=C(N)N)[C@@H](O)[C@@H]3N=C(N)N)O[C@@H](C)[C@]2(O)C=O)O[C@@H](CO)[C@H](O)[C@H]1O", "note": "[STREPTOMYCIN]", "values": [{"measurement": "MIC", "setting": "[4]", "value": 1.56, "unit": "µg/mL"}, {"measurement": "MIC", "setting": "[5]", "value": 1.56, "unit": "µg/mL"}, {"measurement": "MIC", "setting": "[6]", "value": 1.56, "unit": "µg/mL"}]}
{"compound": "Clc1ccccc1C(c1ccccc1)(c1ccccc1)n1ccnc1", "note": "[CLOTRIMAZOLE]", "values": [{"measurement": "zone of inhibition at 30 µg/mL", "setting": "[11]", "value": 21, "unit": "mm"}, {"measurement": "zone of inhibition at 30 µg/mL", "setting": "[12]", "value": 18, "unit": "mm"}, {"measurement": "zone of inhibition at 30 µg/mL", "setting": "[13]", "value": 22, "unit": "mm"}, {"measurement": "zone of inhibition at 30 µg/mL", "setting": "[14]", "value": 23, "unit": "mm"}]}
